Data reported in US20250368649A1, “TETRAHYDROPYRIDOPYRIMIDINE PAN-KRAS INHIBITORS” (Mirati Therapeutics, Inc., priority 2022, published 2025).

Tests used:
[1] = biological target: KRas WT (Homo sapiens, UniProt P01116); assay: KRas binding assay (TR-FRET displacement), KRas WT; conditions: for inhibition at 0.01 µM: single point, 10 nM compound; for IC50: TR-FRET displacement
[2] = biological target: KRas G12A (Homo sapiens, UniProt P01116, G12A); type: binding; conditions: for inhibition at 0.01 µM: single point, 10 nM compound, read-out: Binding to KRas (% inhibition at 10 nM) G12A; for IC50: TR-FRET displacement, read-out: Binding to KRas (IC50 nM) G12A
KRas G12A, sequence (P01116 1-169 isoform P01116-2 G12A): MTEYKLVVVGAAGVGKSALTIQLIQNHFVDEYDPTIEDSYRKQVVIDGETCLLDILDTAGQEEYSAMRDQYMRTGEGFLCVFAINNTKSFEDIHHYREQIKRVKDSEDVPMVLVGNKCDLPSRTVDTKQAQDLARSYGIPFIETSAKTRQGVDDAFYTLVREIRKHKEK

[3] = biological target: KRas G12C (Homo sapiens, UniProt P01116, G12C); type: binding; conditions: for inhibition at 0.01 µM: single point, 10 nM compound, read-out: Binding to KRas (% inhibition at 10 nM) G12C; for IC50: TR-FRET displacement, read-out: Binding to KRas (IC50 nM) G12C
KRas G12C, sequence (P01116 1-169 isoform P01116-2 G12C): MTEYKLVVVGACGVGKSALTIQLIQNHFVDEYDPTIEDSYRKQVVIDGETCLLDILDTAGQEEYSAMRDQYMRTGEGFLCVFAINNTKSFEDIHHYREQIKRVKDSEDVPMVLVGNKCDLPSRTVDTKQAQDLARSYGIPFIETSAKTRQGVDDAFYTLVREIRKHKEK

[4] = biological target: KRas G12S (Homo sapiens, UniProt P01116, G12S); type: binding; conditions: for inhibition at 0.01 µM: single point, 10 nM compound, read-out: Binding to KRas (% inhibition at 10 nM) G12S; for IC50: TR-FRET displacement, read-out: Binding to KRas (IC50 nM) G12S
KRas G12S, sequence (P01116 1-169 isoform P01116-2 G12S): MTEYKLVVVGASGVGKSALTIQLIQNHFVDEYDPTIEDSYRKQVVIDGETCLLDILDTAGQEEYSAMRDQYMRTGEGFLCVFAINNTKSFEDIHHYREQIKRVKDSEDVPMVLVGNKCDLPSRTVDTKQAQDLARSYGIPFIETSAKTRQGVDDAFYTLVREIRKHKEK

[5] = biological target: KRas G13D (Homo sapiens, UniProt P01116, G13D); type: binding; conditions: for inhibition at 0.01 µM: single point, 10 nM compound, read-out: Binding to KRas (% inhibition at 10 nM) G13D; for IC50: TR-FRET displacement, read-out: Binding to KRas (IC50 nM) G13D
KRas G13D, sequence (P01116 1-169 isoform P01116-2 G13D): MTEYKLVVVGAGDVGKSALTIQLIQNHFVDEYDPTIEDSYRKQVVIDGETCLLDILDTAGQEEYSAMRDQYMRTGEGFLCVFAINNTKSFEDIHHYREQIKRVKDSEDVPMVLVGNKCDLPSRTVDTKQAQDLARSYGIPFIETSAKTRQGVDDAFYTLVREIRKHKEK

[6] = biological target: KRas Q61H (Homo sapiens, UniProt P01116, Q61H); assay: KRas binding assay (TR-FRET displacement), KRas Q61H; conditions: for inhibition at 0.01 µM: single point, 10 nM compound; for IC50: TR-FRET displacement
KRas Q61H, sequence (P01116 1-169 isoform P01116-2 Q61H): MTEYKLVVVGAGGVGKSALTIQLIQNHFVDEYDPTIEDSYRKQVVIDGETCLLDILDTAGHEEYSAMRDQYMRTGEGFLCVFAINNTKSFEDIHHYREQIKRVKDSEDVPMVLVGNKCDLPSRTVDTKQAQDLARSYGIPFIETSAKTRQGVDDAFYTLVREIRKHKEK

[7] = system: MKN1 cells; assay: Inhibition of KRas-mediated phosphorylation of ERK (Cisbio HTRF pERK), MKN1 cells; type: cell-based; conditions: Homo sapiens
Summary of the method: (§1)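 Cells were seeded on day 1 at 6,000 per well in RPMI containing 10% FBS before compound treatment and phospho-ERK detection.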

[8] = system: PSN1 cells; assay: Inhibition of KRas-mediated phosphorylation of ERK (Cisbio HTRF pERK), PSN1 cells; type: cell-based; conditions: Homo sapiens, PSN1, 3 h
Summary of the method: as §1

[9] = system: ASPC1 cells; assay: Inhibition of KRas-mediated phosphorylation of ERK (Cisbio HTRF pERK), ASPC1 cells; type: cell-based; conditions: Homo sapiens, ASPC1, 3 h, AsPC-1 cells, 3 hr compound incubation
[10] = system: H727 cells; assay: Inhibition of KRas-mediated phosphorylation of ERK (Cisbio HTRF pERK), H727 cells; type: cell-based; conditions: Homo sapiens, NCI-H727, 3 h, 3 hr compound incubation
[11] = system: A549 cells; assay: Inhibition of KRas-mediated phosphorylation of ERK (Cisbio HTRF pERK), A549 cells; type: cell-based; conditions: Homo sapiens, A549, 3 h, 3 hr compound incubation
[12] = system: H460 cells; assay: Inhibition of KRas-mediated phosphorylation of ERK (Cisbio HTRF pERK), H460 cells; type: cell-based; conditions: Homo sapiens, NCI-H460, 3 h, 3 hr compound incubation
[13] = system: HCT116 cells; assay: Inhibition of KRas-mediated phosphorylation of ERK (Cisbio HTRF pERK), HCT116 cells; type: cell-based; conditions: Homo sapiens, HCT-116, 3 h, 3 hr compound incubation
[14] = biological target: KRas G12D (Homo sapiens, UniProt P01116, G12D); assay: biochemical; conditions: Binding to KRas (IC50 nM) G12D, TR-FRET displacement, KRas G12D
KRas G12D, sequence (P01116 1-169 isoform P01116-2 G12D): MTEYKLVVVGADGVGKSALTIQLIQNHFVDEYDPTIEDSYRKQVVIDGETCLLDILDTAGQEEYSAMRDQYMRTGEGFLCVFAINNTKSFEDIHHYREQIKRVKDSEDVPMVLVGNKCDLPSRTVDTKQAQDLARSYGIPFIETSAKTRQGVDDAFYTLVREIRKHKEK

[15] = biological target: KRas G12R (Homo sapiens, UniProt P01116, G12R); assay: biochemical; conditions: Binding to KRas (IC50 nM) G12R, TR-FRET displacement, KRas G12R
KRas G12R, sequence (P01116 1-169 isoform P01116-2 G12R): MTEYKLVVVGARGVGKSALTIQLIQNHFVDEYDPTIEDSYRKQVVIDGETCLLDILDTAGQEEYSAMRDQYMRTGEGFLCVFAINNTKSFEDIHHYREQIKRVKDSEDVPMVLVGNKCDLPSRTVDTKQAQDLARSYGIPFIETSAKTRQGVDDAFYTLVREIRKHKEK

[16] = biological target: KRas G12V (Homo sapiens, UniProt P01116, G12V); assay: biochemical; conditions: Binding to KRas (IC50 nM) G12V, TR-FRET displacement, KRas G12V
KRas G12V, sequence (P01116 1-169 isoform P01116-2 G12V): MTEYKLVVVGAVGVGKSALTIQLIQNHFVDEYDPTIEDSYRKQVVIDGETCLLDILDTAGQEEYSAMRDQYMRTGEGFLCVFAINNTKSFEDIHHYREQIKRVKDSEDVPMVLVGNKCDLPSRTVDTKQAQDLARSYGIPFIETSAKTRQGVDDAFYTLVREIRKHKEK

[17] = system: H358 cells; assay: Inhibition of KRas-mediated phosphorylation of ERK (Cisbio HTRF pERK), H358 cells; type: cell-based; conditions: Homo sapiens, NCI-H358, 3 h, 3 hr compound incubation
[18] = MKN-1, 3 hour compound incubation, Cisbio pERK HTRF
[19] = 3 hour compound incubation, Cisbio pERK HTRF

KRas WT, sequence (P01116 1-169 isoform P01116-2): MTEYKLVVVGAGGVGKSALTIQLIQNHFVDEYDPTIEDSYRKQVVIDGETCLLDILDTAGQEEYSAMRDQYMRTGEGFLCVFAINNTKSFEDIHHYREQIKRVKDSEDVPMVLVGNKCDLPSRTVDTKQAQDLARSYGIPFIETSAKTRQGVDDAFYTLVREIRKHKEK

Row | Structure (SMILES) | IC50 [7, 18] [nM] | IC50 [8, 19] [nM] | IC50 ([9]; Cisbio pERK HTRF) [nM] | IC50 ([10]; Cisbio pERK HTRF) [nM] | IC50 ([11]; Cisbio pERK HTRF) [nM] | IC50 ([12]; Cisbio pERK HTRF) [nM] | IC50 ([13]; Cisbio pERK HTRF) [nM] | IC50 [14] [nM] | IC50 [15] [nM] | IC50 [16] [nM] | IC50 [1] [nM] | IC50 [3] [nM] | IC50 [4] [nM] | IC50 ([17]; Cisbio pERK HTRF) [nM] | also measured
1 | CCc1c(F)ccc2cc(O)cc(N3CCc4c(nc(OC[C@@]56CCCN5C[C@H](F)C6)nc4N4CCCn5nc(C(=O)OC)cc5C4)C3)c12 [Example 411, methyl 5-(7-(8-ethyl-7-fluoro-3-hydroxynaphthalen-1-yl)-2-(((2R,7aS)-2-fluorohexahydro-1H-pyrrolizin-7a-yl)methoxy)-5,6,7,8-tetrahydropyrido[3,4-d]pyrimidin-4-yl)-5,6,7,8-tetrahydro-4H-pyrazolo[1,5-a][1,4]diazepine-2-carboxylate] | 30.1 | 6540 | 31 | 54 | 111 | 260 | 423 | < 2 | < 2 | < 2 |  |  |  |  | inhibition at 0.01 µM [1]: 73%; inhibition at 0.01 µM [2]: 74%; inhibition at 0.01 µM [3]: 90%; inhibition at 0.01 µM [4]: 88%; inhibition at 0.01 µM [5]: 75%; inhibition at 0.01 µM [6]: 71%
2 | CCc1c(F)ccc2cc(O)cc(N3CCc4c(nc(OCC56CCCN5C/C(=C\F)C6)nc4N4CCC[C@]5(C4)NC(=O)NC5=O)C3)c12 (stereo partly drawn) [Example 577, (5R)-7-(7-(8-ethyl-7-fluoro-3-hydroxynaphthalen-1-yl)-2-(((Z)-2-(fluoromethylene)tetrahydro-1H-pyrrolizin-7a(5H)-yl)methoxy)-5,6,7,8-tetrahydropyrido[3,4-d]pyrimidin-4-yl)-1,3,7-triazaspiro[4.5]decane-2,4-dione] | 0.1 | 7 | 2 | 6 | 1 | 1 | 2 | < 2 |  | < 2 | < 2 | < 2 | < 2 | 1 | 
3 | CCc1c(F)ccc2cc(O)cc(N3CCc4c(nc(OCC56CCCN5C/C(=C\F)C6)nc4N4C[C@@H]5C[C@H](C4)[C@H](O)C5)C3)c12 (stereo partly drawn) [Example 576, (1R,5R,6R)-3-(7-(8-ethyl-7-fluoro-3-hydroxynaphthalen-1-yl)-2-(((Z)-2-(fluoromethylene)tetrahydro-1H-pyrrolizin-7a(5H)-yl)methoxy)-5,6,7,8-tetrahydropyrido[3,4-d]pyrimidin-4-yl)-3-azabicyclo[3.2.1]octan-6-ol] | 5.8 | 2760 | 88 | 57 | 61 | 57 | 137 | 4 |  | < 2 | 3 | 3 | < 2 | 49 | 

Now from value to compound, other results behind:

Row | IC50 [7, 18] [nM] | IC50 [8, 19] [nM] | IC50 ([9]; Cisbio pERK HTRF) [nM] | IC50 ([10]; Cisbio pERK HTRF) [nM] | IC50 ([11]; Cisbio pERK HTRF) [nM] | IC50 ([12]; Cisbio pERK HTRF) [nM] | IC50 ([13]; Cisbio pERK HTRF) [nM] | IC50 [14] [nM] | IC50 [15] [nM] | IC50 [16] [nM] | IC50 [1] [nM] | IC50 [3] [nM] | IC50 [4] [nM] | IC50 ([17]; Cisbio pERK HTRF) [nM] | Structure (SMILES) | also measured
4 | 6 | 194 | 40 | 37 | 9 | 20 | 38 | < 2 | < 2 | < 2 |  |  |  |  | CCc1c(F)ccc2cc(O)cc(N3CCc4c(nc(OC[C@@]56CCCN5C[C@H](F)C6)nc4N4CCCC5(CC(=O)NC5=O)C4)C3)c12 (stereo partly drawn) [Example 419, 7-(7-(8-ethyl-7-fluoro-3-hydroxynaphthalen-1-yl)-2-(((2R,7aS)-2-fluorohexahydro-1H-pyrrolizin-7a-yl)methoxy)-5,6,7,8-tetrahydropyrido[3,4-d]pyrimidin-4-yl)-2,7-diazaspiro[4.5]decane-1,3-dione] | inhibition at 0.01 µM [1]: 62%; inhibition at 0.01 µM [2]: 54%; inhibition at 0.01 µM [3]: 83%; inhibition at 0.01 µM [4]: 72%; inhibition at 0.01 µM [5]: 82%; inhibition at 0.01 µM [6]: 90%
5 | 53.7 | > 10000 | 5760 | 2690 |  |  |  | 3 | < 2 | < 2 | < 2 | < 2 | < 2 |  | C[C@@H]1C[C@@H]1c1c(Cl)cc2[nH]ncc2c1N1CCc2c(nc(OCC34CCCN3CCC4)nc2N2CCC[C@]3(C2)NC(=O)NC3=O)C1 [Example 449, (R)-7-(7-(6-chloro-5-((1S,2R)-2-methylcyclopropyl)-1H-indazol-4-yl)-2-((hexahydro-1H-pyrrolizin-7a-yl)methoxy)-5,6,7,8-tetrahydropyrido[3,4-d]pyrimidin-4-yl)-1,3,7-triazaspiro[4.5]decane-2,4-dione] | IC50 [2]: < 2 nM; IC50 [5]: < 2 nM; IC50 [6]: < 2 nM
6 |  |  |  |  |  |  |  | < 2 |  | < 2 | < 2 | < 2 | < 2 |  | C[C@@H]1C[C@@H]1c1c(Cl)cc(O)cc1N1CCc2c(nc(OC[C@@]34CCCN3C[C@H](F)C4)nc2N2CCC[C@]3(C2)NC(=O)NC3=O)C1 (stereo in doubt) [Example 653, (R)-7-(7-(3-chloro-5-hydroxy-2-(cis-2-methylcyclopropyl)phenyl)-2-(((2R,7aS)-2-fluorotetrahydro-1H-pyrrolizin-7a(5H)-yl)methoxy)-5,6,7,8-tetrahydropyrido[3,4-d]pyrimidin-4-yl)-1,3,7-triazaspiro[4.5]decane-2,4-dione] | IC50 ([7]; MKN-1, 3 hr compound incubation): 2.4 nM; IC50 ([8]; 3 hr compound incubation): 131 nM; IC50 [9]: 70 nM; IC50 [10]: 60 nM; IC50 [11]: 17 nM; IC50 [12]: 12 nM; IC50 [13]: 28 nM; IC50 [17]: 6 nM
7 | 18.3 | > 10000 | 699 | 513 | 168 | 227 | 968 | 7 |  | 2 | 4 | 4 | 3 | 204 | C=C1CN2CC(=C)CC2(COc2nc3c(c(N4C[C@@H]5C[C@H](C4)[C@H](O)C5)n2)CCN(c2cc(O)cc4ccc(F)c(CC)c24)C3)C1 [Example 579, (1R,5R,6R)-3-(2-((2,6-dimethylenetetrahydro-1H-pyrrolizin-7a(5H)-yl)methoxy)-7-(8-ethyl-7-fluoro-3-hydroxynaphthalen-1-yl)-5,6,7,8-tetrahydropyrido[3,4-d]pyrimidin-4-yl)-3-azabicyclo[3.2.1]octan-6-ol] | 
8 | 1470 | > 10000 | 1160 | 1220 |  |  |  | 9 | 57 | 20 | 150 | 42 | 46 |  | CN(C)C(=O)c1cc2n(n1)CCCN(c1nc(OC[C@@]34CCCN3C[C@H](F)C4)nc3c1CCN(c1cccc4cccc(Cl)c14)C3)C2 [Example 483, 5-(7-(8-chloronaphthalen-1-yl)-2-(((2R,7aS)-2-fluorohexahydro-1H-pyrrolizin-7a-yl)methoxy)-5,6,7,8-tetrahydropyrido[3,4-d]pyrimidin-4-yl)-N,N-dimethyl-5,6,7,8-tetrahydro-4H-pyrazolo[1,5-a][1,4]diazepine-2-carboxamide] | IC50 [2]: 81 nM; IC50 [5]: 239 nM; IC50 [6]: 238 nM
